In assay [1] the target is BRD4 (Homo sapiens, UniProt O60885). Put plainly: Western blot of BRD4 levels after cellular dosing. Background: Immunoblotting shows a protein as a band on a membrane.
In assay [2] the test system is BRD proteins in U2OS KO/rescue lysate. In words: Degradation in non-denaturing lysates of U2OS KO/rescue cells. Particulars: non-denaturing U2OS KO/rescue lysate 4mg/ml, 10 µM, 30° C.

“And” between values parts separate entries of the source, which are not always exact repeats. Equal entries are not always repeated.

On to `Cc1sc2c(c1C)C(c1ccc(Cl)cc1)=N[C@@H](CC(=O)N1CCN(CCOc3cccc4ccc(-c5nc(CC(=O)NCC(=O)O)cs5)cc34)CC1)c1nnc(C)n1-2` [SJ46421], for which the “BRD4 level, Western blot quantification (DMSO = 100)” value in assay [1] (Fig 6b, KO/Rescue, 5 uM) was 89.649 and 113.548; in assay [1] (Fig 6b, U2OS, 5 uM), 119.505 and 104.107; in assay [1] (Fig S6a, 293T cells, 2.5 uM), 98.5503 and 107.435; in assay [1] (Fig S6a, 293T cells, 5 uM), 86.1267 and 99.7257; in assay [1] (Fig S6b, MDA-MB468 Cells, 10 uM), 94.0762 and 99.1924. Besides, the “degrader dependent decrease in BRD protein levels in lysate” value in assay [2] is reported as “did not observe a degrader dependent decrease”.

The values are drawn from article PMC11470957, “Principles of paralog-specific targeted protein degradation engaging the C-degron E3 KLHDC2” (Nature Communications, 2024).
